Measurements from ChEMBL document CHEMBL5042486, “Discovery and Preclinical Characterization of BIIB091, a Reversible, Selective BTK Inhibitor for the Treatment of Multiple Sclerosis” (J Med Chem, 2022).
Activity calls are given as the source filed them. The rule behind the calls is not given here.

How the values were obtained:
[1] = tested on: Liver; assay: Drugmetabolism in mouse liver microsomes assessed as metabolite formation; assay type: ADME, Microsome
[2] = Protein binding in human plasma assessed as unbound fraction at 2 uM by rapid equilibrium dialysis method; assay type: ADME, cell-free
[3] = Kinetic solubility of the compound at pH 1.5 by shake flask method; assay type: physicochemical; conditions: buffer, read-out: Kinetic_solubility
[4] = Lipophilicity, logD of the compound at pH 7.6 by shake flask assay; assay type: physicochemical; conditions: buffer
[5] = Clearance in Sprague-Dawley rat assessed as hepatic blood flow at 1 mg/kg, iv; assay type: ADME, organism-based, Liver; conditions: in vivo
[6] = Clearance in Beagle dog assessed as hepatic blood flow at 1 mg/kg, iv; assay type: ADME, organism-based, Canis lupus familiaris, Liver; conditions: in vivo
[7] = target: Aurora kinase A (Homo sapiens, UniProt O14965); assay: Binding affinity to wild-type human partial length AURKA (E122 to K401 residues) expressed in mammalian expression system by Kinomescan method
[8] = target: Cyclin-dependent kinase-like 2 (Homo sapiens, UniProt Q92772); assay: Binding affinity to wild-type human partial length CDKL2 (M1 to D327 residues) expressed in bacterial expression system by Kinomescan method
[9] = target: Mitogen-activated protein kinase kinase kinase 13 (Homo sapiens, UniProt O43283); assay: Binding affinity to wild-type human full length LZK (M1 to W966 residues) expressed in mammalian expression system by Kinomescan method
[10] = target: Dual specificity mitogen-activated protein kinase kinase 2 (Homo sapiens, UniProt P36507); assay: Binding affinity to wild-type human full length MEK2 (M1 to V400 residues) expressed in mammalian expression system by Kinomescan method
[11] = target: Phosphatidylinositol 4-phosphate 5-kinase type-1 gamma (Homo sapiens, UniProt O60331); assay: Binding affinity to wild-type human partial length PIP5K1C (M1 to T668 residues) expressed in mammalian expression system by Kinomescan method
[12] = Clearance in cynomolgus monkey assessed as hepatic blood flow at 1 mg/kg, iv; assay type: ADME, organism-based, Macaca fascicularis, Liver; conditions: in vivo
[13] = Volume of distribution at steady state in Beagle dog at 5 mg/kg, po; assay type: ADME, organism-based, Canis lupus familiaris; conditions: in vivo
[14] = target: Voltage-dependent L-type calcium channel subunit alpha-1C (Homo sapiens, UniProt Q13936); assay: Inhibition of human Cav1.2; assay type: toxicity
[15] = Hepatotoxicity in rat primary cells assessed as change in ATP level for 10 days; assay type: toxicity, cell-based, Hepatocyte; conditions: hepatocytes, 240 h, time 10 day
[16] = Hepatotoxicity in rat primary cells assessed as change in urea level for 10 days; assay type: toxicity, cell-based, Hepatocyte; conditions: hepatocytes, 240 h, time 10 day
[17] = Hepatotoxicity in rat primary cells assessed as change in albumin level for 10 days; assay type: toxicity, cell-based, Hepatocyte; conditions: hepatocytes, 240 h, time 10 day
[18] = target: T1, Sodium channel protein type 5 subunit alpha (Homo sapiens, UniProt Q14524); assay: Inhibition of tonic human Nav1.5; assay type: toxicity
[19] = target: T1, Sodium channel protein type 5 subunit alpha; assay: Inhibition of phasic human Nav1.5; assay type: toxicity
[20] = In vivo toxicity in Sprague-Dawley rat assessed as compound related toxicity at 500 mg/kg after 28 days; assay type: organism-based; conditions: 672 h, time 28 day
[21] = In vivo toxicity in Sprague-Dawley rat assessed as compound related pathology findings at 500 mg/kg after 28 days; assay type: organism-based; conditions: 672 h, time 28 day
[22] = tested on: Cynomolgus monkey; assay: In vivo toxicity in cynomolgus monkey assessed as compound related toxicity at 250 mg/kg after 28 days; assay type: organism-based, Macaca fascicularis; conditions: 672 h, time 28 day
[23] = tested on: Cynomolgus monkey; assay: In vivo toxicity in cynomolgus monkey assessed as compound related pathology at 250 mg/kg after 28 days; assay type: organism-based, Macaca fascicularis; conditions: 672 h, time 28 day
[24] = tested on: Cynomolgus monkey; assay: In vivo toxicity in cynomolgus monkey assessed as compound related ECG findings at 250 mg/kg after 28 days; assay type: organism-based, Macaca fascicularis; conditions: 672 h, time 28 day
[25] = Dissociation constant, pKa of the compound; assay type: physicochemical
[26] = target: Early activation antigen CD69 (Homo sapiens, UniProt Q07108); assay: Inhibition of CD69 (unknown origin) assessed as reduction in BCR mediated B cell activation; assay type: cell-based
[27] = target: CD63 antigen (Homo sapiens, UniProt P08962); assay: Inhibition of CD63 (unknown origin) assessed as FcepsilonR induced basophil activation
[28] = target: Tumor necrosis factor receptor superfamily member 5 (Homo sapiens) (UniProt P25942); assay: Inhibition of CD40 in IL-4/[…] stimulated human PBMC at >10 uM; assay type: cell-based; conditions: dose microM >10
[29] = In vivo inhibition of BTK-dependent B cell activation in C57BL/6 mouse immunized with NP-Ficoll assessed as reduction in anti-NP IgM antibody titer at 30 mg/kg, po BID dosed for 10 days; assay type: functional; set-up: scale not given: the % may be the effect or the level left; conditions: time 10 day
[30] = In vivo inhibition of BTK-dependent B cell activation in C57BL/6 mouse immunized with NP-Ficoll assessed as reduction in anti-NP IgM antibody titer at 10 mg/kg, po BID dosed for 10 days; assay type: functional; set-up: scale not given: the % may be the effect or the level left; conditions: time 10 day
[31] = In vivo inhibition of BTK-dependent B cell activation in C57BL/6 mouse immunized with NP-Ficoll assessed as reduction in anti-NP IgM antibody titer at 0.3 mg/kg, po BID dosed for 10 days; assay type: functional; set-up: scale not given: the % may be the effect or the level left; conditions: time 10 day
[32] = In vivo inhibition of BTK-dependent B cell activation in C57BL/6 mouse immunized with NP-Ficoll assessed as reduction in anti-NP IgM antibody titer at 0.1 mg/kg, po BID dosed for 10 days; assay type: functional; set-up: scale not given: the % may be the effect or the level left; conditions: time 10 day
[33] = In vivo inhibition of BTK-dependent B cell activation in C57BL/6 mouse immunized with NP-Ficoll assessed as reduction in anti-NP IgM antibody titer at 0.03 mg/kg, po BID dosed for 10 days; assay type: functional; set-up: scale not given: the % may be the effect or the level left; conditions: time 10 day
[34] = In vivo inhibition of BTK-dependent B cell activation in C57BL/6 mouse immunized with NP-Ficoll assessed as reduction in anti-NP IgM antibody titer; assay type: toxicity, organism-based
[35] = In vivo toxicity in Sprague-Dawley rat assessed as NOAEL after 28 days; assay type: organism-based; conditions: time 28 day
[36] = Apparent permeability across basolateral to apical side in human Caco2 cells; assay type: ADME, cell-based; conditions: Caco-2
[37] = target: Bile salt export pump (Homo sapiens, UniProt O95342); assay: Inhibition of BSEP (unknown origin) at >30 uM
[38] = target: Broad substrate specificity ATP-binding cassette transporter ABCG2 (Homo sapiens, UniProt Q9UNQ0); assay: Inhibition of BCRP (unknown origin) at >30 uM
[39] = Protein binding in monkey plasma assessed as unbound fraction; assay type: ADME, cell-free, Macaca mulatta; conditions: rhesus monkey
[40] = target: Cytochrome P450 2D6 (Homo sapiens, UniProt P10635); assay: Inhibition of CYP2D6 in human liver microsomes at 10 to 50 uM; assay type: ADME; conditions: dose 10-50 µM
[41] = Protein binding in rat plasma assessed as unbound fraction; assay type: ADME, cell-free
[42] = In vivo toxicity in cynomolgus monkey assessed as NOAEL after 28 days; assay type: organism-based, Macaca fascicularis; conditions: time 28 day
[43] = tested on: Liver; assay: Drugmetabolism in rat liver microsomes assessed as metabolite formation; assay type: ADME, Microsome
[44] = tested on: Liver; assay: Drugmetabolism in dog liver microsomes assessed as metabolite formation; assay type: ADME, Canis lupus familiaris, Microsome
[45] = Drugmetabolism in cynomolgus monkey liver microsomes assessed as metabolite formation; assay type: ADME, Macaca fascicularis, Microsome
[46] = tested on: Liver; assay: Drugmetabolism in human liver microsomes assessed as metabolite formation; assay type: ADME, Microsome
[47] = Drugmetabolism in mouse hepatocytes assessed as metabolite formation; assay type: ADME, cell-based, Hepatocyte
[48] = Drugmetabolism in rat hepatocytes assessed as metabolite formation; assay type: ADME, cell-based, Hepatocyte
[49] = Drugmetabolism in human hepatocytes assessed as metabolite formation; assay type: ADME, cell-based, Hepatocyte

T1 sequence (Q14524 whole entry): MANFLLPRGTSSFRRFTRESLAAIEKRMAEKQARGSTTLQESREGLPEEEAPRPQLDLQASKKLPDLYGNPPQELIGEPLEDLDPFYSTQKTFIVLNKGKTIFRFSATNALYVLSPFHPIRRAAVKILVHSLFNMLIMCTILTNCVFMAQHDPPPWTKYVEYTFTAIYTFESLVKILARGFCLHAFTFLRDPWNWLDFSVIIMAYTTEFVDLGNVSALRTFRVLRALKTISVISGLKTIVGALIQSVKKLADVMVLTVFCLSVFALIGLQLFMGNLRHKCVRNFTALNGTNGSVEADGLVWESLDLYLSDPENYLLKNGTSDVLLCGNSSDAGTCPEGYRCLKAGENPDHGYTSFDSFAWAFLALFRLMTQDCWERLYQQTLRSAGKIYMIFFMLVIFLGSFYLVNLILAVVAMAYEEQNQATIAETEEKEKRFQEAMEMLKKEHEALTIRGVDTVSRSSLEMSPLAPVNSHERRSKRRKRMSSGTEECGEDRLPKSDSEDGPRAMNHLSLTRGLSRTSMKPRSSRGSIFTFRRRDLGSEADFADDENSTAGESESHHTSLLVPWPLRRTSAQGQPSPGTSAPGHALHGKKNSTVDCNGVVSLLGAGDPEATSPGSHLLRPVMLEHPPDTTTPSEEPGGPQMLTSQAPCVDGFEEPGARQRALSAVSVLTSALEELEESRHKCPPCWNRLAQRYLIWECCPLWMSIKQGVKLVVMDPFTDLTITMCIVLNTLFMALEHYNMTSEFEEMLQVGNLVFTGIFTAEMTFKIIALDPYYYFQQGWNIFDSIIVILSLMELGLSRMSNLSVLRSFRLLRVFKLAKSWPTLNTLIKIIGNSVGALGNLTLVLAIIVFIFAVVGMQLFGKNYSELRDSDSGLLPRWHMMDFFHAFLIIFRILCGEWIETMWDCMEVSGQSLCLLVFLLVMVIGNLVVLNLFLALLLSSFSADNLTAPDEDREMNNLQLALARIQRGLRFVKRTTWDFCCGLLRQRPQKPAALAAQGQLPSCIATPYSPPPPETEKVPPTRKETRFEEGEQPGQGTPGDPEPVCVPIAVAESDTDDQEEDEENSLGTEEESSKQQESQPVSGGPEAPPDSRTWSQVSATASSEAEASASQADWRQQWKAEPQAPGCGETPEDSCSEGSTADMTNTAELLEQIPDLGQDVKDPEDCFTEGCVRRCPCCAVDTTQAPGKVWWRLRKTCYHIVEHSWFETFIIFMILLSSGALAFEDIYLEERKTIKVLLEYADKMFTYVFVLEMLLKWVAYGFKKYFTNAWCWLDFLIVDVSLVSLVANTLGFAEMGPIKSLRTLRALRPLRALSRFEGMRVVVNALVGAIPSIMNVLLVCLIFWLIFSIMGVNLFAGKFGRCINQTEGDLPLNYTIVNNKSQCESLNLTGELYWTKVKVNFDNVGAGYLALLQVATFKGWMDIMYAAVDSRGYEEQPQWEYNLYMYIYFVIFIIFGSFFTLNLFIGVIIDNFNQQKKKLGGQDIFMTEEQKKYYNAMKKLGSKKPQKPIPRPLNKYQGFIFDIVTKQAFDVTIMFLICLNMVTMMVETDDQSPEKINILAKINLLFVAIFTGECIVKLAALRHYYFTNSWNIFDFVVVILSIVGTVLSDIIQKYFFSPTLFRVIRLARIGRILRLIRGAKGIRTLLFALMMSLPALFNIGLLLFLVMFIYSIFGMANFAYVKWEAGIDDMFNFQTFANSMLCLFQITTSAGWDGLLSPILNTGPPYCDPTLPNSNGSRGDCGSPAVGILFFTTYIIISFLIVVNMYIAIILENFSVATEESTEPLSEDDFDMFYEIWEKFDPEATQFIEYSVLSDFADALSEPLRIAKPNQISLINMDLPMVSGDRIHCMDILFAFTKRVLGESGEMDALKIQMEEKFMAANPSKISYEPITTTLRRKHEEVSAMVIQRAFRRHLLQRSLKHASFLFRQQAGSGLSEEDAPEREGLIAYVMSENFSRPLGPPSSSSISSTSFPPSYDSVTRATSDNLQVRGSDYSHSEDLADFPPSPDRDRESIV
Sequence of Early activation antigen CD69 (Q07108 whole entry): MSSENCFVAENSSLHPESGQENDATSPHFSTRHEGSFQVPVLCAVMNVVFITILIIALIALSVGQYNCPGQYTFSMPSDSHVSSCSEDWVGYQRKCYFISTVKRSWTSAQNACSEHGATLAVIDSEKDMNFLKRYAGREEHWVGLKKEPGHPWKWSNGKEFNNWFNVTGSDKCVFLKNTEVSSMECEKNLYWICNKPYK
Sequence of Tumor necrosis factor receptor superfamily member 5 (Homo sapiens) (P25942 whole entry): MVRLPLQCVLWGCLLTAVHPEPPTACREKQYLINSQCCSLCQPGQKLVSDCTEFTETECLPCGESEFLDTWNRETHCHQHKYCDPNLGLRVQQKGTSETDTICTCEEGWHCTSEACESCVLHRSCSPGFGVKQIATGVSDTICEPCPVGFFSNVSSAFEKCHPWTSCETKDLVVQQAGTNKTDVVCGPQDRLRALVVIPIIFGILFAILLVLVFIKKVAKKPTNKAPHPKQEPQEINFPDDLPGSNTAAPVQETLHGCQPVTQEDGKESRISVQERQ
Sequence of Cyclin-dependent kinase-like 2 (Q92772 whole entry, the tested form may be a part): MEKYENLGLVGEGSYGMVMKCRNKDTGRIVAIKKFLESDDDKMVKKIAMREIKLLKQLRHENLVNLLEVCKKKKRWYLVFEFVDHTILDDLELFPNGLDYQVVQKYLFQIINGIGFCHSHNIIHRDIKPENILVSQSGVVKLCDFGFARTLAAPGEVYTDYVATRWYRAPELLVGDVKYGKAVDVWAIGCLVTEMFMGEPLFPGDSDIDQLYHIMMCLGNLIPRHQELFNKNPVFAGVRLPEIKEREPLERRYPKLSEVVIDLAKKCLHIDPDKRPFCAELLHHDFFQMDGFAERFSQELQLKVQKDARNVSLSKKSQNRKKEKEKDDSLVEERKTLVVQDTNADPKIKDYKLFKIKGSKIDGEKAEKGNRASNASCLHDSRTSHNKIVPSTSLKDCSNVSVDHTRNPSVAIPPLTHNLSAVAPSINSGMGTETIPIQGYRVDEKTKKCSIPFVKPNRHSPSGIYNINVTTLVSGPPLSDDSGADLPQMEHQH
Sequence of Mitogen-activated protein kinase kinase kinase 13 (O43283 whole entry, the tested form may be a part): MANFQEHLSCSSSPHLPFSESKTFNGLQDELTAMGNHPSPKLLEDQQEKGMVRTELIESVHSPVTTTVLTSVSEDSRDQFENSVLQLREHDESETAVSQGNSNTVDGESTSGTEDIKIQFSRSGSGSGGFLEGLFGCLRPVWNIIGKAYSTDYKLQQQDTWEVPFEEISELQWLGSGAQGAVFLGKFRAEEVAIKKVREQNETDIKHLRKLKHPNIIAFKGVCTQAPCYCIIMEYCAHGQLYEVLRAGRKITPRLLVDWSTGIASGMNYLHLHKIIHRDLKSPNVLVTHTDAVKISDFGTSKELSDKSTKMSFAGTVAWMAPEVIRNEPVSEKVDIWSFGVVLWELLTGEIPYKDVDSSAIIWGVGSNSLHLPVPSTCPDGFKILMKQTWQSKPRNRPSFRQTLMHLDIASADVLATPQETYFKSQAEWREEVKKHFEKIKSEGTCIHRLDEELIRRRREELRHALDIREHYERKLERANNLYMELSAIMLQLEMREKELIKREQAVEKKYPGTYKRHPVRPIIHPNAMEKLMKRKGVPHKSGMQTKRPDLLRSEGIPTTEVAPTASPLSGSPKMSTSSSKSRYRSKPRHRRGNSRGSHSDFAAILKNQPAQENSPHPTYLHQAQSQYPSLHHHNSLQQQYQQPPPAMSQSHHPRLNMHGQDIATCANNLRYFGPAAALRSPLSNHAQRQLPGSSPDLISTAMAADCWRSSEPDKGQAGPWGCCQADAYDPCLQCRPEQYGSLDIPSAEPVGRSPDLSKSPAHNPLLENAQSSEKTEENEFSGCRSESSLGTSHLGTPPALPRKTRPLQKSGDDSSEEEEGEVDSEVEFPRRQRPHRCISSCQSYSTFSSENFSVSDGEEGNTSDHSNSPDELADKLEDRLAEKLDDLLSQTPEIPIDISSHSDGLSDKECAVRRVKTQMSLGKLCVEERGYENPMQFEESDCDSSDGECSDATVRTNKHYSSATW
Sequence of Cytochrome P450 2D6 (P10635 whole entry): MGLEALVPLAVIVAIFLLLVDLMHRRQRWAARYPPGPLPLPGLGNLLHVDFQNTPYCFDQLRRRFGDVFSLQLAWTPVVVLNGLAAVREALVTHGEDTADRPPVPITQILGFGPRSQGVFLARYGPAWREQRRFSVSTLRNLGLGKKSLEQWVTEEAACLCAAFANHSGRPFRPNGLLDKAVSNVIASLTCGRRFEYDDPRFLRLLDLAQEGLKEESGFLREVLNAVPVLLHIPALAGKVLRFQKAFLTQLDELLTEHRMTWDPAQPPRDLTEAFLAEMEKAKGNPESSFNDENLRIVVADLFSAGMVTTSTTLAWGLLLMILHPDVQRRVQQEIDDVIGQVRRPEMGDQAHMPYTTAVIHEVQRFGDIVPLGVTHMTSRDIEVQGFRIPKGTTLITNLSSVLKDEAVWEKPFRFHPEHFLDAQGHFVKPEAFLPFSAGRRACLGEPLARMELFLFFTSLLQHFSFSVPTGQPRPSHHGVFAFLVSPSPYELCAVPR
Sequence of Aurora kinase A (O14965 whole entry, the tested form may be a part): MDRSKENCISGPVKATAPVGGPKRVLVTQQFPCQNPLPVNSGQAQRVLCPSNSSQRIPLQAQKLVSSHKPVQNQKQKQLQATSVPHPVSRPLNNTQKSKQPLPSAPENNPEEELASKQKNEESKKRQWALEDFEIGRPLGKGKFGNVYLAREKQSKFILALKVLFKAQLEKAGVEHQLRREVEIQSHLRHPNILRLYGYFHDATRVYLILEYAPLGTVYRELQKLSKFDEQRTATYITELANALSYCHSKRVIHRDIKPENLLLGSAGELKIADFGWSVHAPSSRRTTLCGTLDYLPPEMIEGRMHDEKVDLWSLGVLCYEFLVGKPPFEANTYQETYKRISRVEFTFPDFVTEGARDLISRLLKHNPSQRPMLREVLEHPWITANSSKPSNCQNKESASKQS

For `Cn1cc(Nc2nccc(-c3ccc4c(c3)CN(C3COC3)CC[C@H]4NC(=O)c3cn(C(C)(C)C)nn3)n2)cn1` [BIIB-091], the Drug metabolism [1] was “Metabolite_Notdetected”, the fraction unbound at 2 µM [2] was 0.26 and the solubility kinetic [3] was over 50 µg/mL. For the same compound, the logD [4] was 2.2, the QH [5] was 22% and the QH [6] was 33%. It also gave a Kd [7] of 660 nM, a Kd [8] of 240 nM and a Kd [9] of over 3000 nM. The Kd [10] was 200 nM, the Kd [11] was 420 nM and the QH [12] was 44%. The Vdss [13] was 1.7 L/kg, the IC50 [14] was over 25000 nM and the Activity [15] was “Non-Toxic”. The Activity [16] was “Non-Toxic”, the Activity [17] was “Non-Toxic” and the IC50 [18] was over 25000 nM. For the same compound, the IC50 [19] was over 25000 nM, the Activity [20] was “Non-Toxic” and the Activity [21] was “Non-Toxic”. The Activity [22] was “Non-Toxic”, the Activity [23] was “Non-Toxic” and the Activity [24] was “Non-Toxic”. The pKa [25] was 2.8, the IC50 [26] was 71 nM and the IC50 [27] was 82 nM. For the same compound, the inhibition [28] was “inactive”, the Activity [29] was 88% and the Activity [30] was 77%. It also gave an Activity [31] of 59%, an Activity [32] of 44% and an Activity [33] of 34%. For the same compound, the ED50 [34] was 1.95 mg/kg, the NOAEL at 672 h [35] was 500 mg/kg and the Papp B→A [36] was 37.6 ×10⁻⁶ cm/s. For the same compound, the “inhibition (INH)” value [37] was “Not Active”, the “inhibition (INH)” value [38] was “Not Active” and the fraction unbound [39] was 0.19. The “inhibition (INH)” value [40] was “Not Active”, the fraction unbound [41] was 0.1 and the NOAEL at 672 h [42] was 250 mg/kg. For the same compound, the Drug metabolism [43] was “Metabolite_Notdetected”, the Drug metabolism [44] was “Metabolite_Notdetected” and the Drug metabolism [45] was “Metabolite_Notdetected”. For the same compound, the Drug metabolism [46] was “Metabolite_Notdetected”, the Drug metabolism [47] was “Metabolite_Notdetected” and the Drug metabolism [48] was “Metabolite_Notdetected”. For the same compound, the Drug metabolism [49] was “Metabolite_Notdetected”.
